In US10421759B2, “Fused bicyclic compounds for the treatment of disease” (AKARNA THERAPEUTICS, LTD., priority 2015, dated 2019):

Columns and labels:
[1] = molecular target: T1, FXR (Homo sapiens, UniProt Q96RI1); assay: FXR Agonist Tranactivation Assay (luciferase reporter, CV-1 cells); type: cell-based; details: at 10 μM; CV-1 cells cotransfected with pCMV6-NR1H4 (FXR), pCMV6-RXRA and pEcREX7-TK-Luc; positive control 10 uM XL-335; 20 hours
T1 construct: expressed in transfected cells; host or cells: CV-1 cells, transient cotransfection
T1 sequence (Q96RI1 1-486): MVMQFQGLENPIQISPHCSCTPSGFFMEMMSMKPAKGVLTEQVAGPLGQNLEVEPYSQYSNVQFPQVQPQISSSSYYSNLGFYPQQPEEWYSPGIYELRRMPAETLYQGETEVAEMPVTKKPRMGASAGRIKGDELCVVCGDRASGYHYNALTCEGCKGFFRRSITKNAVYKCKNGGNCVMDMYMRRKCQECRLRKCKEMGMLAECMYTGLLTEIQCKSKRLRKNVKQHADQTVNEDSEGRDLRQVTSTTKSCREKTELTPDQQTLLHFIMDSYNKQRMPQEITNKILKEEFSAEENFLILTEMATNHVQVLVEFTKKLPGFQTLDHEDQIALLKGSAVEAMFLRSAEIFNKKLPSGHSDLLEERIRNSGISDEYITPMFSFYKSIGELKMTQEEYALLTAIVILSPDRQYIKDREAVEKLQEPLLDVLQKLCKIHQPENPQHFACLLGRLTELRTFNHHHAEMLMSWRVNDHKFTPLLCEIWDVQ
T1 sequence (P19793 1-462 partner): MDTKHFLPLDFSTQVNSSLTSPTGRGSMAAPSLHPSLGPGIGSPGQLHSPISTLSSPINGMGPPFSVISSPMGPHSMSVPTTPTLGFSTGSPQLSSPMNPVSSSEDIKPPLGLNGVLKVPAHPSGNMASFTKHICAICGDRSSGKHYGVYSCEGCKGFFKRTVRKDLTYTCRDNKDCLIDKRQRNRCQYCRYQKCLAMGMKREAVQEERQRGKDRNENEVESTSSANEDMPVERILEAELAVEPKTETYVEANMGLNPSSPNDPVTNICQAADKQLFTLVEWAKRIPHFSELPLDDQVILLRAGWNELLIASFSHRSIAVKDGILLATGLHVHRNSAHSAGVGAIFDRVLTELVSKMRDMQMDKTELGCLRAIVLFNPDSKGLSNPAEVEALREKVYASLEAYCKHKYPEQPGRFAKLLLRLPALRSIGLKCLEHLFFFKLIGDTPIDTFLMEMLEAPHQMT
Protocol: CV-1 cells were transiently cotransfected with pCMV6-NR1H4 (FXR), pCMV6-RXRA and reporter plasmid pEcREX7-TK-Luc. Five hours after transfection, cells were trypsinized and dispensed into 96-well plates at a concentration of 10,000 cells per well.
Compound Dilution and Addition: Starting from 3.33 mM of compound in DMSO solution a 10-point 3-fold serial dilution was made by diluting 5 μl of compound into 10 μl of DMSO. The serially diluted compound was then diluted 1:33 into DMEM. This medium was then diluted ten-fold into the culture medium with the cells (10 μl/well). All concentration points are assayed in duplicate. Plates were incubated at 37° C. for 20 hours.
Luciferase activity Readout: After the incubation 20 μl of culture medium were removed from each well and mixed with 50 μl of assay solution (Pierce™ Gaussia Luciferase Flash Assay Kit). The luminescence was measured immediately after addition of the Luc substrate with an Envision microplate reader.
Data Reduction and Analysis: The raw data was uploaded to CDD and dose-response curves were generated using the Levenberg-Marquardt algorithm integrated into CDD. As a positive control 10 uM XL-335 and as a negative control DMSO is included on each plate and used to normalize the data with the CDD built-in normalization function.

[2] = test system: Mouse Cyp7A1; assay: Gene Expression Assay (liver qPCR after p.o. dosing); type: in vivo; details: C57BL/6 mice, 10 mg/kg p.o., liver collected 4 hours post dosing
Protocol: (§1) C57BL/6 mice (3 per group) were dosed p.o. with 10 mg/kg of compound 20. Livers were collected at 4 hours post dosing and transferred into RNALater solution immediately. Tissues were stored at 4° C. until RNA isolation. RNA was isolated, quantified and amplified; qPCR was performed using SuperScript® III Platinum® SYBR®Green One-Step qRT-PCR Kit (Cat no. 11736-051). Primers used are as listed: Mouse Cyp7A1: For: (SEQ. ID NO: 1) [NT] Rev: (SEQ. ID NO: 2) [NT]; Mouse SHP: For: (SEQ. ID NO: 3) [NT] Rev: (SEQ. ID NO: 4) [NT]; Mouse GAPDH: For: (SEQ. ID NO: 5) [NT] Rev: (SEQ. ID NO: 6) [NT]

[3] = test system: Mouse SHP; assay: as above; type: in vivo; details: C57BL/6 mice, 10 mg/kg p.o., liver collected 4 hours post dosing
Protocol: as §1, with “1) […]” for “1) [NT]”, “2) AGTGGTGGCAAAATTCCCA;” for “2) [NT];”, “3) […]” for “3) [NT]”, “4) AGCCTCCTGTTGCAGGTGT;” for “4) [NT];”, “5) […]” for “5) [NT]”, “6) […].” for “6) [NT]”

Row | Compound | activation compared to the positive control [1] | Avg. % mRNA induction, CYP7a [2] | Avg. % mRNA induction, SHP [3]
1 | CC(C)OC(=O)C1=CN(C(=O)c2ccc(OCC[N+]3(C)CCOCC3)cc2)CC(C)(C)c2c(C(F)(F)F)n[nH]c21 [compound 13] | inactive | – | –
2 | CCOC(=O)C1=CN(C(=O)N2CC[N+](C)(C)CC2)CC(C)(C)c2c1[nH]c1ccccc21.[I-] [compound 20, 4-(5-(ethoxycarbonyl)-1,1-dimethyl-1,2,3,6-tetrahydroazepino[4,5-b]indole-3-carbonyl)-1,1-dimethylpiperazin-1-ium iodide] | 86% | 57% | 266%
